Measured values published in patent US11548870B2, “Compounds useful as inhibitors of helios protein” (Bristol-Myers Squibb Company, priority 2019, dated 2023).
Values joined by “and” are separate entries in the source; they are usually repeats but may differ in a detail not shown here. Equal entries are not always repeated.

Columns and labels:
Ikaros = biological target: T1, Ikaros (Homo sapiens, UniProt Q13422); experiment: Helios Cellular Degradation Assay, Ikaros readout (flow cytometry, Ikaros-Alexa488 antibody staining, 72 h); format: cell-based; conditions: Jurkat cells, 72 h incubation, flow cytometry; for Dmax: Jurkat, read-out: Ikaros Dmax
T1 construct: fluorescently labelled antibodies against Helios and Ikaros; endogenous in cells; host or cells: Jurkat cells
T1 sequence (Q96SW2 whole entry partner): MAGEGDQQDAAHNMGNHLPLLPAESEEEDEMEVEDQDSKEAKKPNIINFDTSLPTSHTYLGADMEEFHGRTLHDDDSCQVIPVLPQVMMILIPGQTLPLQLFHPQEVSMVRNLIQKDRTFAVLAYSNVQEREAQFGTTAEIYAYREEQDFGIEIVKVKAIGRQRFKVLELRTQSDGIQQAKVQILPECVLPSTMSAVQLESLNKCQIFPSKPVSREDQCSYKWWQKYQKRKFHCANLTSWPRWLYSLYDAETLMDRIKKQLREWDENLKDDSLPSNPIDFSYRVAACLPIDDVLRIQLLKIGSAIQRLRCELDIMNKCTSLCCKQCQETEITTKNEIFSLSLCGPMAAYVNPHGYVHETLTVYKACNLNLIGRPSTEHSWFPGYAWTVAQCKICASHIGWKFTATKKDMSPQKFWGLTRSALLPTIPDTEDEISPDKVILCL
T1 sequence (Q16531 whole entry partner): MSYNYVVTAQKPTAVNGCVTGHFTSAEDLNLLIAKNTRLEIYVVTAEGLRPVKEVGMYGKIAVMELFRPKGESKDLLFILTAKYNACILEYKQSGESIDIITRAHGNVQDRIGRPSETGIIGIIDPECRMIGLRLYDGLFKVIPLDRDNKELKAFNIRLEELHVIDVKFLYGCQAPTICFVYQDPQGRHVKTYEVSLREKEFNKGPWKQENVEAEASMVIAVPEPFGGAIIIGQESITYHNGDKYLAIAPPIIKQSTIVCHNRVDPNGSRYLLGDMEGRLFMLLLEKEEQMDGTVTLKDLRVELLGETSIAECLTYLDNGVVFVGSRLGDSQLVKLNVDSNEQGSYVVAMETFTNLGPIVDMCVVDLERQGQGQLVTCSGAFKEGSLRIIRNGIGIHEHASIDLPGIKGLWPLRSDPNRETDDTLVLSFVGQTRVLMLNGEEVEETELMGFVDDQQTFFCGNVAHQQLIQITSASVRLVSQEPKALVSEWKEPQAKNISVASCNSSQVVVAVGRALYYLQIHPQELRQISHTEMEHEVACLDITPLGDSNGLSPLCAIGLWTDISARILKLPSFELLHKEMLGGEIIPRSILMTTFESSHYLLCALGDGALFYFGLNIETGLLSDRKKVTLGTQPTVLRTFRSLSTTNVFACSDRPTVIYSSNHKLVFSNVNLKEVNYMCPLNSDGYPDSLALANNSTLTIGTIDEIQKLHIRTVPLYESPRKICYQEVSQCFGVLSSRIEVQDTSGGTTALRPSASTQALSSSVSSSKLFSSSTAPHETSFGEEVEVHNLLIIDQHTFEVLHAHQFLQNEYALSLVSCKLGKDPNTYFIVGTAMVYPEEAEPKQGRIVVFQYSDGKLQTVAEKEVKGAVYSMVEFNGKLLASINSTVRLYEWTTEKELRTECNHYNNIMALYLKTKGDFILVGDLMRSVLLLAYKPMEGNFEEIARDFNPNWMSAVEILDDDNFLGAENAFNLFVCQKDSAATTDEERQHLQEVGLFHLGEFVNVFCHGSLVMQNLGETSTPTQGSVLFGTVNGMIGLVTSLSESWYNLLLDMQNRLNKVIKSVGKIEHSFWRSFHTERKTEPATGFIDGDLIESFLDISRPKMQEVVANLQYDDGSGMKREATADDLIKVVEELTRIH
T1 sequence (Q13422 whole entry): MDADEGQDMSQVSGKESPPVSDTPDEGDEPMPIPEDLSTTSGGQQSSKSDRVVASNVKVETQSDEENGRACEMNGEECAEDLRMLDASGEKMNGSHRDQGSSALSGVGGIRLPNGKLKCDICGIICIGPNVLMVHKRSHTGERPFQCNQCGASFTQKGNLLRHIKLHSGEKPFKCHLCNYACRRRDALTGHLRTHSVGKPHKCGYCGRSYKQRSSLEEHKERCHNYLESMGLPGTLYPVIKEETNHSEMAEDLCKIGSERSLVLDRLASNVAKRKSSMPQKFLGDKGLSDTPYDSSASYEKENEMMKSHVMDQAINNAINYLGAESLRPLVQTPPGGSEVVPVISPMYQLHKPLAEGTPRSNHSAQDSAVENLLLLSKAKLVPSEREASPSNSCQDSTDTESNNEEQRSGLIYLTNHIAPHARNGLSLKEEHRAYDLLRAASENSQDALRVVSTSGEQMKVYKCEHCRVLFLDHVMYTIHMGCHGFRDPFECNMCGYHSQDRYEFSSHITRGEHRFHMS
Method: (§1) Helios Cellular Degradation Assay
(§2) Jurkat cells were plated at 80,000 cells/well in 40 μL RPMI+10% FBS in a 384 well cell culture plate prior to using acoustic dispensing technology for adding compound of interest. Cell cultures were incubated for 72 h at 37° C. and 5% CO2. In order to facilitate analysis, cell cultures were spun down at 200 rpm for 5 min and the supernatant was discarded. After shaking the plate to dislodge the cell pellet, cells were resuspended in 50 μL of Fixation Buffer (eBioScience FoxP3 buffer set 0000) for 60 min at room temperature. After centrifuging and discarding the supernatant, cells were permeabilized with 50 μL of Permeabilization buffer (eBioScience FoxP3 buffer set 00-5523-00) for 10 min at room temperature. Following permeabilization, cells were spun down and the supernatant was replaced with 20 μL fluorescently labelled antibodies against Helios and Ikaros or corresponding Isotype controls in 1× Permeabilization buffer (Ikaros-Alexa488 [Biolegend, Cat #368408, 1:50], Helios-PE [CST, Cat #29360, 1:50]) and staining reactions were incubated for 1 h at room temperature; protected from light. Subsequently, 30 μL of 1× Permeabilization buffer was added prior to centrifuging the cells and discarding the supernatant. Stained cells were resuspended in 25 μL of flow cytometry staining buffer (PBS+0.2% BSA) and analyzed using an Intellicyt Ique Plus flow cytometer.
as §2, with “00-5523-00)” for “0000)”

Helios = biological target: T2, Helios (Homo sapiens, UniProt Q96SW2+Q9UKS7); experiment: Helios Cellular Degradation Assay (flow cytometry, Helios-PE antibody staining, 72 h); format: cell-based; conditions: Jurkat cells, 72 h incubation, flow cytometry; for Dmax: Jurkat, read-out: Helios Dmax
T2 construct: fluorescently labelled antibodies against Helios and Ikaros; endogenous in cells; host or cells: Jurkat cells
T2 sequence (Q9UKS7 whole entry): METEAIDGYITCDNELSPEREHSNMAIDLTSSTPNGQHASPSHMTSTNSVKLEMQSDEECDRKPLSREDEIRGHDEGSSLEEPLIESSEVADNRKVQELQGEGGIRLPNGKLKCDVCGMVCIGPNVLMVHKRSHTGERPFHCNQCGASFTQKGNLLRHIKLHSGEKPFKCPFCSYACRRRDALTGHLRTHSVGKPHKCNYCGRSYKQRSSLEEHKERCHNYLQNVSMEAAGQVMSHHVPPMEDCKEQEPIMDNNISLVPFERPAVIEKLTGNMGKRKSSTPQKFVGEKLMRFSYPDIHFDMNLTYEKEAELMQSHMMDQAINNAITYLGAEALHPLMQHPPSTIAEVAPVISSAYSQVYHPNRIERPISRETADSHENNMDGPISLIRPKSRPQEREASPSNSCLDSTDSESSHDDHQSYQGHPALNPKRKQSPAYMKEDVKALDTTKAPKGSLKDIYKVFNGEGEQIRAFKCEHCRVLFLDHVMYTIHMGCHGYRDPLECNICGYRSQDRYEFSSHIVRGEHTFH
T2 sequence (Q96SW2 whole entry): as the sequence (Q96SW2 whole entry partner) above
T2 sequence (Q16531 whole entry partner): as the sequence (Q16531 whole entry partner) above
Method: as §1, §2
as §2, with “00-5523-00)” for “0000)”

Row | Compound | DC50 (Ikaros) [µM] | Dmax (Ikaros) [%] | DC50 (Helios) [µM] | Dmax (Helios) [%] | Helios Dmax (Helios)
1 | O=C1CN(Cc2ccnc(-c3ccc4c(c3)CN(C3CCC(=O)NC3=O)C4=O)c2)CCN1 (stereo not drawn) [Example 37, 3-(1-oxo-5-(4-((3-oxopiperazin-1-yl)methyl)pyridin-2-yl)isoindolin-2-yl)piperidine-2,6-dione] | > 10 | 10 | > 10 | 24 | –
2 | NC(=O)C1CCN1Cc1ccnc(-c2ccc3c(c2)CN(C2CCC(=O)NC2=O)C3=O)c1 (stereo not drawn) [Example 206, 1-((2-(2-(2,6-dioxopiperidin-3-yl)-1-oxoisoindolin-5-yl)pyridin-4-yl)methyl)azetidine-2-carboxamide] | > 10 | 9 | 0.74 | 66 | –
3 | CN(CCC(F)(F)F)Cc1ccnc(-c2ccc3c(c2)CN(C2CCC(=O)NC2=O)C3=O)c1 (stereo not drawn) [Example 184, 3-(5-(4-((methyl(3,3,3-trifluoropropyl)amino)methyl)pyridin-2-yl)-1-oxoisoindolin-2-yl)piperidine-2,6-dione] | > 10 | 14 | 6.05 | 54 | –
4 | CN(CC(=O)N(C)C)Cc1ccnc(-c2ccc3c(c2)CN(C2CCC(=O)NC2=O)C3=O)c1 (stereo not drawn) [Example 34, 2-(((2-(2-(2,6-dioxopiperidin-3-yl)-1-oxoisoindolin-5-yl)pyridin-4-yl)methyl)(methyl)amino)-N,N-dimethylacetamide] | > 10 | 9 | > 10 | 26 | –
5 | O=C1CCC(N2Cc3cc(-c4cc(CN5CCC(N6CCCC6)CC5)ccn4)ccc3C2=O)C(=O)N1 (stereo not drawn) [Example 23, 3-(1-oxo-5-(4-((4-(pyrrolidin-1-yl)piperidin-1-yl)methyl)pyridin-2-yl)isoindolin-2-yl)piperidine-2,6-dione] | > 10 | 14 | > 10 | 22 | –
6 | O=C1CCC(N2Cc3cc(-c4cc(CN5CCOCC5)ccn4)ccc3C2=O)C(=O)N1 (stereo not drawn) [Example 166, 3-(5-{4-[(Morpholin-4-yl)methyl]pyridin-2-yl}-1-oxo-2,3-dihydro-1H-isoindol-2-yl) piperidine-2,6-dione] | > 10 | 7 | 7.86 | 52 | –
7 | O=C1CCC(N2Cc3cc(-c4cc(CN5CCCC(c6ccccc6)C5)ccn4)ccc3C2=O)C(=O)N1 (stereo not drawn) [Example 143, 3-(1-oxo-5-(4-((3-phenylpiperidin-1-yl)methyl)pyridin-2-yl)isoindolin-2-yl)piperidine-2,6-dione] | > 10 | 1 | 0.04 | 62 | –
8 | O=C1CCC(N2Cc3cc(-c4cc(CN5CCCCCC5)ccn4)ccc3C2=O)C(=O)N1 (stereo not drawn) [Example 48, 3-(5-(4-(azepan-1-ylmethyl)pyridin-2-yl)-1-oxoisoindolin-2-yl)piperidine-2,6-dione] | > 10 | 6 | 0.032 | 72 | –
9 | O=C1CCC(N2Cc3cc(-c4cc(CN[C@H](CCO)c5ccccc5)ccn4)ccc3C2=O)C(=O)N1 (stereo partly drawn) [Example 131, 3-(5-(4-((((R)-3-hydroxy-1-phenylpropyl)amino)methyl)pyridin-2-yl)-1-oxoisoindolin-2-yl)piperidine-2,6-dione] | > 10 | 9 | 0.014 | 83 | –
10 | O=C1CCC(N2Cc3cc(-c4cc(CNCCCN5CCOCC5)ccn4)ccc3C2=O)C(=O)N1 (stereo not drawn) [Example 114, 3-(5-(4-(((3-morpholinopropyl)amino)methyl)pyridin-2-yl)-1-oxoisoindolin-2-yl)piperidine-2,6-dione] | > 10 | 2 | 0.063 | 83 | –
11 | Cc1ccccc1CNCc1ccnc(-c2ccc3c(c2)CN(C2CCC(=O)NC2=O)C3=O)c1 (stereo not drawn) [Example 56, 3-(5-(4-(((2-methylbenzyl)amino)methyl)pyridin-2-yl)-1-oxoisoindolin-2-yl)piperidine-2,6-dione] | > 10 | 18 | 0.013 | 88 | –
12 | O=C1CCC(N2Cc3cc(-c4cc(CN5CCC5c5ccccc5)ccn4)ccc3C2=O)C(=O)N1 (single isomer, unassigned) [Example 204, 3-(1-oxo-5-(4-((2-phenylazetidin-1-yl)methyl)pyridin-2-yl)isoindolin-2-yl)piperidine-2,6-dione] | > 10 | – | > 10 | – | 2.42% and 2.4%
13 | O=C1CCC(N2Cc3cc(-c4cc(CN5CCC[C@H]5c5ccccc5)ccn4)ccc3C2=O)C(=O)N1 (stereo partly drawn) [Example 133, 3-(1-oxo-5-(4-(((S)-2-phenylpyrrolidin-1-yl)methyl)pyridin-2-yl)isoindolin-2-yl)piperidine-2,6-dione] | > 10 | 7 | 0.075 | 84 | –
14 | CN(C)C1CCN(Cc2ccnc(-c3ccc4c(c3)CN(C3CCC(=O)NC3=O)C4=O)c2)CC1 (stereo not drawn) [Example 40, 3-(5-(4-((4-(dimethylamino)piperidin-1-yl)methyl)pyridin-2-yl)-1-oxoisoindolin-2-yl)piperidine-2,6-dione] | > 10 | 8 | > 10 | 9 | –
15 | O=C1CCC(N2Cc3cc(-c4cc(CN5CCC(N6CCCCC6)CC5)ccn4)ccc3C2=O)C(=O)N1 (stereo not drawn) [Example 17, 3-(5-(4-([1,4′-bipiperidin]-1′-ylmethyl)pyridin-2-yl)-1-oxoisoindolin-2-yl)piperidine-2,6-dione] | > 10 | 11 | > 10 | 16 | –

Other lines, results leading:

Row | DC50 (Ikaros) [µM] | Dmax (Ikaros) [%] | DC50 (Helios) [µM] | Dmax (Helios) [%] | Helios Dmax (Helios) | Compound
16 | > 10 | 4 | 3.53 | 60 | – | CC(=O)NCCNCc1ccnc(-c2ccc3c(c2)CN(C2CCC(=O)NC2=O)C3=O)c1 (stereo not drawn) [Example 91, N-(2-(((2-(2-(2,6-dioxopiperidin-3-yl)-1-oxoisoindolin-5-yl)pyridin-4-yl)methyl)amino)ethyl)acetamide]
17 | > 10 | 8 | 0.287 | 81 | – | O=C1CCC(N2Cc3cc(-c4cc(CNCCCn5ccnc5)ccn4)ccc3C2=O)C(=O)N1 (stereo not drawn) [Example 113, 3-(5-(4-(((3-(1H-imidazol-1-yl)propyl)amino)methyl)pyridin-2-yl)-1-oxoisoindolin-2-yl)piperidine-2,6-dione]
18 | > 10 | 13 | > 10 | 17 | – | CC(=O)N1CCN(Cc2ccnc(-c3ccc4c(c3)CN(C3CCC(=O)NC3=O)C4=O)c2)CC1 (stereo not drawn) [Example 28, 3-(5-(4-((4-acetylpiperazin-1-yl)methyl)pyridin-2-yl)-1-oxoisoindolin-2-yl)piperidine-2,6-dione]
19 | > 10 | 13 | 0.003 | 88 | – | O=C1CCC(N2Cc3c(ccc(-c4cc(CN5CC(c6ccccc6)C5)ccn4)c3F)C2=O)C(=O)N1 (stereo not drawn) [Example 208, 3-(4-Fluoro-1-oxo-5-(4-((3-phenylazetidin-1-yl)methyl)pyridin-2-yl)isoindolin-2-yl)piperidine-2,6-dione]
20 | > 10 | 3 | 2.36 | 53 | – | CC1CCC(C)N1Cc1ccnc(-c2ccc3c(c2)CN(C2CCC(=O)NC2=O)C3=O)c1 (stereo not drawn) [Example 119, 3-(5-(4-((2,5-dimethylpyrrolidin-1-yl)methyl)pyridin-2-yl)-1-oxoisoindolin-2-yl)piperidine-2,6-dione]
21 | > 10 | 16 | 2.5 | 53 | – | C[C@H]1CCCCN1Cc1ccnc(-c2ccc3c(c2)CN(C2CCC(=O)NC2=O)C3=O)c1 (stereo partly drawn) [Example 74, 3-(5-(4-(((S)-2-methylpiperidin-1-yl)methyl)pyridin-2-yl)-1-oxoisoindolin-2-yl)piperidine-2,6-dione]
22 | > 10 | 17 | 0.009 | 89 | – | CC1(C)CCN(Cc2ccnc(-c3ccc4c(c3)CN(C3CCC(=O)NC3=O)C4=O)c2)CC1 (stereo not drawn) [Example 82, 3-(5-(4-((4,4-dimethylpiperidin-1-yl)methyl)pyridin-2-yl)-1-oxoisoindolin-2-yl)piperidine-2,6-dione]
